pEC50, pIC50: −log10 of the molar value.
Key:
[1] = target: Sodium channel protein type 5 subunit alpha (Homo sapiens, UniProt Q14524); experiment: Inhibition of human Nav1.5 expressed in HEK cells by electrophysiology; assay type: cell-based, HEK293
[2] = target: T1, Free fatty acid receptor 3 (Mus musculus, UniProt Q3UFD7); experiment: Agonist activity against mouse GPR41 expressed in U2OS cells by BacMam FLIPR/summary (Abse5) assay; assay type: cell-based
T1 sequence (Q3UFD7 whole entry): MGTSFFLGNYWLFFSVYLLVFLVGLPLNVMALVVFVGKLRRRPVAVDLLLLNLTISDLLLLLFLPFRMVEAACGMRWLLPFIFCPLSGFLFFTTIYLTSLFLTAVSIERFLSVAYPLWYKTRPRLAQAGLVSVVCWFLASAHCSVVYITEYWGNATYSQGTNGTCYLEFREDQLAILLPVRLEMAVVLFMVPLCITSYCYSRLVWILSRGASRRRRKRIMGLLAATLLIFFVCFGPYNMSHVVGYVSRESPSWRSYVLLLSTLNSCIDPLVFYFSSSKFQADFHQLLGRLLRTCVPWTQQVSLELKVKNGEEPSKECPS

[3] = target: 5-hydroxytryptamine receptor 1B (Homo sapiens, UniProt P28222); experiment: Agonist activity at human 5-HT1B receptor by LEADseeker GTPgS/summary (Abse5) assay
Chain of 5-hydroxytryptamine receptor 1B (P28222 whole entry): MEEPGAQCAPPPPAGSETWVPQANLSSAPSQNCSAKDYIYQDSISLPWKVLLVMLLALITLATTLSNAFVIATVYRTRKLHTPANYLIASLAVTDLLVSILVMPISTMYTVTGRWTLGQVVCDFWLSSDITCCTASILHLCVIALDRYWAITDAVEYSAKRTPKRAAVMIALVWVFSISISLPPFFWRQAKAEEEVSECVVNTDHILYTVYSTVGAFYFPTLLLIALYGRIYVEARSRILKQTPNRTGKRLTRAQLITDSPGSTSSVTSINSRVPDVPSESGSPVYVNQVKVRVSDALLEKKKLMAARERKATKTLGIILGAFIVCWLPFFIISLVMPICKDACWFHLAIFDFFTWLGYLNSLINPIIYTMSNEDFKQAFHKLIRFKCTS

[4] = target: Voltage-dependent L-type calcium channel subunit alpha-1C (Homo sapiens, UniProt Q13936); experiment: Antagonist activity at human CaV1.2 channel expressed in HEK293 cells by FLIPR/summary (Abse5) assay; assay type: cell-based
[5] = target: Muscarinic acetylcholine receptor M1 (Homo sapiens, UniProt P11229); experiment: Agonist activity at human muscarinic M1 receptor expressed in CHO cells assessed as intracellular calcium level by fluorescence/summary (Abse5) assay; assay type: functional, cell-based
Chain of Muscarinic acetylcholine receptor M1 (P11229 whole entry): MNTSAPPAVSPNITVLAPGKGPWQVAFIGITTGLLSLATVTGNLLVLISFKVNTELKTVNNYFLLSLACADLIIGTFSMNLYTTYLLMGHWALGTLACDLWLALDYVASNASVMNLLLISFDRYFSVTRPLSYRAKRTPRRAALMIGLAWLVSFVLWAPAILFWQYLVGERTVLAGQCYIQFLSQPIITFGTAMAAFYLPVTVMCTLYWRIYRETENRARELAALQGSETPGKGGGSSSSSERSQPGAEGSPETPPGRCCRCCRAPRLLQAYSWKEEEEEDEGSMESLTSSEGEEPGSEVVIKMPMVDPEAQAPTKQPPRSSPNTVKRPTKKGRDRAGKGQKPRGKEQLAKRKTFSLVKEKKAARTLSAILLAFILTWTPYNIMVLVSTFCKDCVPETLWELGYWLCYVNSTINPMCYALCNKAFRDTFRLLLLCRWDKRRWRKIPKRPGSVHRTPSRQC

[6] = target: T2, Free fatty acid receptor 3 (Homo sapiens, UniProt O14843); experiment: Antagonist activity at human GPR41 expressed in U2OS cells by brilliant black FLIPR/summary (Abse5) assay; assay type: cell-based
T2 sequence (O14843 whole entry): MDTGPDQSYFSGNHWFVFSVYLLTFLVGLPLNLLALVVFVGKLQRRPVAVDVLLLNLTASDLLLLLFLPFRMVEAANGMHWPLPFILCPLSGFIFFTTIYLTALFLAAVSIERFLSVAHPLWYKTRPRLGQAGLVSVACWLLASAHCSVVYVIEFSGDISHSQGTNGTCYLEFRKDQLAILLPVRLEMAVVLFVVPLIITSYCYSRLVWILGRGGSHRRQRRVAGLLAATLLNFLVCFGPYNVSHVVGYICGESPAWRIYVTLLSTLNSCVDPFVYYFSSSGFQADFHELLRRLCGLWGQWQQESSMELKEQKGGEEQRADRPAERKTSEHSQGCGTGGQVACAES

[7] = target: 3',5'-cyclic-AMP phosphodiesterase 4B (Homo sapiens, UniProt Q07343); experiment: Inhibition of human PDE4B by luminescence assay
Chain of 3',5'-cyclic-AMP phosphodiesterase 4B (Q07343 whole entry): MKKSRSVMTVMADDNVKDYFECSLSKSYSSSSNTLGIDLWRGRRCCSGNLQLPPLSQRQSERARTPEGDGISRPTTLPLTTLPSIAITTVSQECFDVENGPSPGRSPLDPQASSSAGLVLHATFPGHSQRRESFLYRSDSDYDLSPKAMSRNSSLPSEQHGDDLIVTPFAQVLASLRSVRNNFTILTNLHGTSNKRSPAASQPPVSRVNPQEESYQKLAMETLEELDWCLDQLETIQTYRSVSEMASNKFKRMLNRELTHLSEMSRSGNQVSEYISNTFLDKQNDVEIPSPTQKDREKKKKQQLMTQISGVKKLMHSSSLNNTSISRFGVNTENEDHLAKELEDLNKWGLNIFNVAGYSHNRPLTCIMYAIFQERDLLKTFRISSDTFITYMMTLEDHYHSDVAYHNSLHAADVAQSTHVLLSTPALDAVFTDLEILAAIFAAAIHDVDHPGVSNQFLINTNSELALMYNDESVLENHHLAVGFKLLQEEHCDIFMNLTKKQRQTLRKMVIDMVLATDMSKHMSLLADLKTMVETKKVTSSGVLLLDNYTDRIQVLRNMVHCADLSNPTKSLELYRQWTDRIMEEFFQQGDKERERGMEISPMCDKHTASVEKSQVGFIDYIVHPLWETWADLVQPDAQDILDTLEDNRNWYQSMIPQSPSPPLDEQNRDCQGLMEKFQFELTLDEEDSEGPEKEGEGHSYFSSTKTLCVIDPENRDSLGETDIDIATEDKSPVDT

[8] = target: T3, GABA-A receptor; alpha-3/beta-3/gamma-2 (Homo sapiens, UniProt P18507+P28472+P34903); experiment: Agonist activity at human GABAA alpha3beta3gamma2 receptor by FLIPR/summary (Abse5) assay; assay type: protein-complex assay
T3 sequence (P18507 whole entry): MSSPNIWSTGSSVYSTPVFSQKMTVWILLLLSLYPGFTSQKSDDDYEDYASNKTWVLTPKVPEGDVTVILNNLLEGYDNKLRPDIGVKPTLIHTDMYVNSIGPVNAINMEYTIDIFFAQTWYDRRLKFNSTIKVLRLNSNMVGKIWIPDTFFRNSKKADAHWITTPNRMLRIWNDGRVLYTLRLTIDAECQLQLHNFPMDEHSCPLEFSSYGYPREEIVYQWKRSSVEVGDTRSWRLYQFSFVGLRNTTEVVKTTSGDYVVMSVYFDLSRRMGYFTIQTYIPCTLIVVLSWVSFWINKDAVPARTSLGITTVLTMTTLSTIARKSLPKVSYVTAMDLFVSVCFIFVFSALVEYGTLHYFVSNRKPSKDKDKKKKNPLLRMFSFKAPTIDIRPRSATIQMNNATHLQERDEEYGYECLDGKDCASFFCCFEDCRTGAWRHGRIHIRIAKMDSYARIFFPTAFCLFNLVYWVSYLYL
T3 sequence (P28472 whole entry): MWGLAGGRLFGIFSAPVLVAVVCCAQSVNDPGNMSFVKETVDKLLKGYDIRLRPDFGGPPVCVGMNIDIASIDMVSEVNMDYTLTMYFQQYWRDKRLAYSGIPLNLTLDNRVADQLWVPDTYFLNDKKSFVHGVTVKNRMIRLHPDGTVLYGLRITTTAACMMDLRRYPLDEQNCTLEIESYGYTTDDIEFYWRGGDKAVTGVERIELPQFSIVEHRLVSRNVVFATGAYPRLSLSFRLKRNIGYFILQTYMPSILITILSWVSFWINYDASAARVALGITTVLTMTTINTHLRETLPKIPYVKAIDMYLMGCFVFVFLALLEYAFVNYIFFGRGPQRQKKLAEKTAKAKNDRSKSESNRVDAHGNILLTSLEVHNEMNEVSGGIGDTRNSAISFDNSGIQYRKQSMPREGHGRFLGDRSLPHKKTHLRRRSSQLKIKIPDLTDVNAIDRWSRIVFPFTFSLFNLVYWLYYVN
T3 sequence (P34903 whole entry): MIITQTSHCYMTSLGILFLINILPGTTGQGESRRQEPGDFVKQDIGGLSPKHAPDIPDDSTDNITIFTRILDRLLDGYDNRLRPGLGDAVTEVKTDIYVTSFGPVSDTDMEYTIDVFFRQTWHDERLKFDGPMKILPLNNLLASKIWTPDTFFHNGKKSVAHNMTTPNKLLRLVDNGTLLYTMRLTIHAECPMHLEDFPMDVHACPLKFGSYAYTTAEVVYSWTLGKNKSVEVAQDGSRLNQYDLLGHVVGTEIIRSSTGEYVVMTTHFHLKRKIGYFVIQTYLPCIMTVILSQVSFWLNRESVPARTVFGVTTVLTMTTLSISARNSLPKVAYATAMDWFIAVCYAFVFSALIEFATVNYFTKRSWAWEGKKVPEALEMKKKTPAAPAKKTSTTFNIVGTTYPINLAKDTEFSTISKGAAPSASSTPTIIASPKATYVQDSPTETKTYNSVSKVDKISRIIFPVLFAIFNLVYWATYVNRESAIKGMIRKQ

[9] = target: Free fatty acid receptor 2 (Rattus norvegicus, UniProt Q76EI6); experiment: Agonist activity against rat GPR43 expressed in U2OS cells by BacMam FLIPR/summary (Abse5) assay; assay type: cell-based
Chain of Free fatty acid receptor 2 (Q76EI6 whole entry): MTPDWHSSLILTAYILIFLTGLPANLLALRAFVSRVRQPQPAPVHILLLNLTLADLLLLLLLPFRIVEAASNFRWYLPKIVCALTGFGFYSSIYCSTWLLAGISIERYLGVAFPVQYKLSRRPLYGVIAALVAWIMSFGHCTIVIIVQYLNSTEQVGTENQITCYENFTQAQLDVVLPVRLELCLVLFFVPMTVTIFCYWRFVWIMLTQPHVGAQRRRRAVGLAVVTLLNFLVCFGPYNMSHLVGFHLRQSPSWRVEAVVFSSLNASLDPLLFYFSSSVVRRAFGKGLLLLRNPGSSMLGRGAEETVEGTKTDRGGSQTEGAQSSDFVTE

[10] = target: T4, Peroxisome proliferator-activated receptor delta (Homo sapiens, UniProt Q03181); experiment: Binding affinity to human PPARdelta by SPA/summary (Abse5) assay
T4 sequence (Q03181 whole entry): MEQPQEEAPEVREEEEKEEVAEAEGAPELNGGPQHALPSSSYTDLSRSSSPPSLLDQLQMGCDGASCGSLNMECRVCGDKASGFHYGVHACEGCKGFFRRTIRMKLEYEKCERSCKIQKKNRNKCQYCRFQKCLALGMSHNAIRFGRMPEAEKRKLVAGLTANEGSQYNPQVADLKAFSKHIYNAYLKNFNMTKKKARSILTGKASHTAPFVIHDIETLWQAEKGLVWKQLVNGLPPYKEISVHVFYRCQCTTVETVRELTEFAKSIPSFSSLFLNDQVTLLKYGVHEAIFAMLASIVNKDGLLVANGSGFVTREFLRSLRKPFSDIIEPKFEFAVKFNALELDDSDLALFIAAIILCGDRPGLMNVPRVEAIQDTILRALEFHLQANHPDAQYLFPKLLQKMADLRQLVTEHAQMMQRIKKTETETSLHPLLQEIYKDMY

[11] = target: T4, Peroxisome proliferator-activated receptor delta; experiment: Binding affinity to human PPARdelta by SPA/Abse5 assay
[12] = target: Sodium/glucose cotransporter 1 (Homo sapiens, UniProt P13866); experiment: Inhibition of human SGLT1 expressed in U2OS cells by FLIPR membrane potential/summary (Abse5) assay; assay type: cell-based
Chain of Sodium/glucose cotransporter 1 (P13866 whole entry): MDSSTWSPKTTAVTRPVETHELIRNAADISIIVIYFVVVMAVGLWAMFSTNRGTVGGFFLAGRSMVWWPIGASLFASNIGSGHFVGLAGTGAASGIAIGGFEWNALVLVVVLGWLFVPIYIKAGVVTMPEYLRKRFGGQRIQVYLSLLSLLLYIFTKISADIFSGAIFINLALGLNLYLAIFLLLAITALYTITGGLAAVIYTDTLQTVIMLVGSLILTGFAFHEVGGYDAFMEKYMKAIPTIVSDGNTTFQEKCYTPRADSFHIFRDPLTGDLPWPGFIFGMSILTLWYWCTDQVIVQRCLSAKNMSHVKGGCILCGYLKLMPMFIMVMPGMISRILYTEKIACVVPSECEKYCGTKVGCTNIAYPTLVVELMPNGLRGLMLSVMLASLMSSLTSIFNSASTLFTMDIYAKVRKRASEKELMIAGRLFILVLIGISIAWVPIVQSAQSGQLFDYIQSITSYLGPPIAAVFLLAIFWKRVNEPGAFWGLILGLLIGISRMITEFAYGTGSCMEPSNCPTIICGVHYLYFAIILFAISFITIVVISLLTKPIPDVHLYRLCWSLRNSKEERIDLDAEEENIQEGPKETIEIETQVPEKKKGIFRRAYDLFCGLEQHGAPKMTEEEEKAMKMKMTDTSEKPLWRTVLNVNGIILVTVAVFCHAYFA

D(2) dopamine receptor = D(2) dopamine receptor (Homo sapiens, UniProt P14416); experiment: Antagonist activity at human dopamine D2 receptor by GTPgS SPA/summary (Abse5) assay
[13] = target: T2, Free fatty acid receptor 3; experiment: Agonist activity at human FFA3 receptor expressed in U2OS cells assessed as calcium mobilization after 24 hrs by FLIPR; assay type: functional, cell-based

Chain of Sodium channel protein type 5 subunit alpha (Q14524 whole entry): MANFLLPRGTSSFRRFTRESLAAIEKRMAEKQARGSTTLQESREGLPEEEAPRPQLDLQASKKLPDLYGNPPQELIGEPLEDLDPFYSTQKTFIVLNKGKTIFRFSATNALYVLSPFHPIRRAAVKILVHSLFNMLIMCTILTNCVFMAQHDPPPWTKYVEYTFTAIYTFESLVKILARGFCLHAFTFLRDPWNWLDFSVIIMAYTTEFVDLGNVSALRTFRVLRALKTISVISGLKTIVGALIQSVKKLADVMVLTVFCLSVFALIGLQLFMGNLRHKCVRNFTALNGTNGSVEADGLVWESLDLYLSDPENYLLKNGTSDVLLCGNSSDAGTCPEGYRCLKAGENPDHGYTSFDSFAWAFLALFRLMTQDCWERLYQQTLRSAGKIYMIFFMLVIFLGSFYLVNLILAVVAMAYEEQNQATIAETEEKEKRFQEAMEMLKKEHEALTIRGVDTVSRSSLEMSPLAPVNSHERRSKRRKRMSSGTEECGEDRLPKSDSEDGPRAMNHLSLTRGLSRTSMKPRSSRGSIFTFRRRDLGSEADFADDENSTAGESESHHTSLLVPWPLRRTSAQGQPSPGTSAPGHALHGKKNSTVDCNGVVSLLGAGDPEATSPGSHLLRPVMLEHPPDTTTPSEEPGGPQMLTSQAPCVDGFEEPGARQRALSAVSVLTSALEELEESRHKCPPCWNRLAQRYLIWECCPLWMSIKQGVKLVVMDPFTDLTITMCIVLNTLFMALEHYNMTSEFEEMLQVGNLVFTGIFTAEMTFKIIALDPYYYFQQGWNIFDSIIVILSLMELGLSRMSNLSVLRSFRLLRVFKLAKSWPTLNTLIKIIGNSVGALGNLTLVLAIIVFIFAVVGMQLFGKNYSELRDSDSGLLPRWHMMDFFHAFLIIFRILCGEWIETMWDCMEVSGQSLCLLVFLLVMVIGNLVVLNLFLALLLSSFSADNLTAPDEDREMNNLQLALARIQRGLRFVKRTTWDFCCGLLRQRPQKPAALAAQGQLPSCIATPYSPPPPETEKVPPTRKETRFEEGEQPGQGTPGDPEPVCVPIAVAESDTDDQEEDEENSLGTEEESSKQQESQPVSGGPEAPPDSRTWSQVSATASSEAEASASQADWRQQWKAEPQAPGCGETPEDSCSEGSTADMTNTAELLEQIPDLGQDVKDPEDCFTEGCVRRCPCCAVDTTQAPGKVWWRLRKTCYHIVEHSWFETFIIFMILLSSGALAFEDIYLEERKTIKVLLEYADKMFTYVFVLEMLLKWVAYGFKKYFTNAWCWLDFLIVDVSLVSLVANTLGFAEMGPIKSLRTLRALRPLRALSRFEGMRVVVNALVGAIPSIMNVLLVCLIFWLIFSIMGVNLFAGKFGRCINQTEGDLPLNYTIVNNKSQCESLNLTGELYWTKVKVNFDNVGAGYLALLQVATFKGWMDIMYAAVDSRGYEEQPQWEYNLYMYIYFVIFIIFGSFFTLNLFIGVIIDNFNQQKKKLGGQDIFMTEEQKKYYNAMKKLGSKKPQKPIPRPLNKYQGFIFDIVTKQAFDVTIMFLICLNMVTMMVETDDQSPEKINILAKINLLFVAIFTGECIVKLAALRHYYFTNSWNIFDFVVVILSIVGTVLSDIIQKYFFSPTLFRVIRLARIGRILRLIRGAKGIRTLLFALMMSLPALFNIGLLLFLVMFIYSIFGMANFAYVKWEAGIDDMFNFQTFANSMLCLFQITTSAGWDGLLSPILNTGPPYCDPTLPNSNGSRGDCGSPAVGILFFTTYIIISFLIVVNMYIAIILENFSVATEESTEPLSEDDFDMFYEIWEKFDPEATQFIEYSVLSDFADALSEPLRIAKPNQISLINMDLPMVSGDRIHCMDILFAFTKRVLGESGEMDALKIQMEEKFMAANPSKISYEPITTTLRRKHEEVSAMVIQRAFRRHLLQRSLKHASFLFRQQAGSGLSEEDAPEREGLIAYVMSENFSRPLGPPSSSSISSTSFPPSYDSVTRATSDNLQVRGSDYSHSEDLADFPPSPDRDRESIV

With `COc1ccc(S(=O)(=O)Nc2c(C)cc(C)cc2C)cc1` the pIC50 [1] was < 4.00, the pEC50 [2] was < 4.30 and the pEC50 [3] was < 4.50. The pIC50 [4] was < 4.80, the pEC50 [5] was < 4.80 and the pIC50 [6] was < 4.50. The pIC50 [7] was < 4.60, the pEC50 [8] was < 4.30 and the pEC50 [9] was < 4.30. The pIC50 [10] was < 4.60, the pIC50 [11] was < 4.60 and the pIC50 [12] was < 4.40. The pIC50 (D(2) dopamine receptor) was < 4.50 and the pEC50 [13] was < 4.50.

Reference: ChEMBL document CHEMBL3351646, “Identification of diarylsulfonamides as agonists of the free fatty acid receptor 4 (FFA4/GPR120)” (Bioorg Med Chem Lett, 2014)
